This is an account of results in patent US5717094A, “Process and intermediates for preparing compounds having a disubstituted acetylene moiety and retinoic acid-like biological activity” (Allergan, priority 1991, dated 1998).

Assay [1] concerns ornithine decarboxylase (ODC), TPA induced. Nature of the assay: Inhibition of TPA-induced ornithine decarboxylase (ODC) activity, essentially the method of Verma & Boutwell. It is filed as biochemical. Particulars: concentration attaining 80% inhibition of TPA induced ODC activity. The text has this:
The retionic acid like activity of these compounds was confirmed through the classic measure of retionic acid activity involving the effects of retionic acid on ornithine decarboxylase. The original work on the correlation between retionic acid and decrease in cell proliferation was done by Verma & Boutwell, Cancer Research, 1977, 37, 2196-2201. That reference discloses that ornithine decarboxylase (ODC) activity increased precedent to polyamine biosynthesis. It has been established elsewhere that increases in polyamine synthesis can be correlated or associated with cellular proliferation. Thus, if ODC activity could be inhibited, cell hyperproliferation could be modulated. Although all causes for ODC activity increase are unknown, it is known that 12-0-tetradecanoylphorbol-13-acetate (TPA) induces ODC activity.
By way of example of retionic acid-like activity it is noted that in the assay conducted essentially in accordance with the method of Verman & Boutwell, ibid, the following examples of compounds made in accordance with the process of the present invention (Compounds 10, 11 and 12) attained an 80% inhibition of TPA induced ODC activity at the following concentrations (IC80): […]

For assay [2] the test system is unchanged. Particulars: background statement on retinoic acid; Verma & Boutwell, Cancer Research, 1977, 37, 2196-2201; cited from earlier work.

In turn, `CCOC(=O)c1ccc(C#Cc2ccc3c(c2)C(C)(C)CC(C)(C)S3)nc1` [Compound 10] had an IC80 conc in assay [1] of 0.69 mmols.

Take `CCOC(=O)c1ccc(C#Cc2ccc3c(c2)C(C)(C)CC(C)(C)O3)nc1` [Compound 11]: the IC80 conc in assay [1] was found to be 0.13 mmols.

Take `CCOC(=O)c1ccc(C#Cc2cc3c(cc2C)OC(C)(C)CC3(C)C)nc1` [Compound 12, Ethyl-6-[(2,2,4,4,7-pentamethyl-6-chromanyl)-ethynyl nicotinate]: in assay [1], the IC80 conc amounted to 0.2 mmols.

Consider `CC1=C(/C=C/C(C)=C/C=C/C(C)=C/C(=O)O)C(C)(C)CCC1` [Retionic acid, retionic acid], for which, in assay [2], the “inhibition of induction of ODC activity by TPA” value was “inhibits this induction of ODC activity by TPA”.
